The term melting point denotes the temperature, or range, at which the solid turns liquid.

Compound `N[C@@H]1CN2C(=O)N(c3cc(Cl)cc(Cl)c3)C(=O)[C@@]2(Cc2ccc(OC(F)(F)F)cc2)C1` [Example 300, (5R, 7S)-5-[4-(Trifluoromethoxy)benzyl]-3-(3,5-dichlorophenyl)-7-amino-1,3-diazabicyclo[3.3.0]octane-2,4-dione] showed a melting point of 43.3 °C.

Take `CN(C)CCCC(=O)N[C@@H]1CN2C(=O)N(c3cc(Cl)cc(Cl)c3)C(=O)[C@@]2(Cc2ccc(OC(F)(F)F)cc2)C1` [Example 302, (5R, 7S)-5-[4-(Trifluoromethoxy)benzyl]-3-(3,5-dichlorophenyl)-7-[[4-(dimethylamino)butyryl]amino]-1,3-diazabicyclo[3.3.0]octane-2,4-dione]: the melting point came to 57.9 °C. `O=C1N(c2cc(Cl)cc(Cl)c2)C(=O)C2(Cc3ccc([S+]([O-])C(F)(F)F)cc3)CCCN12` (stereo not drawn) [Example 310] registered a melting point of 63.5 °C. `O=C1N(c2cc(Cl)cc(Cl)c2)C(=O)C2(Cc3ccc(S(=O)(=O)C(F)(F)F)cc3)CCCN12` (stereo not drawn) [Example 311] gave a melting point of 72.5 °C.

`NC(=O)[C@H]1CN2C(=O)N(c3cc(Cl)cc(Cl)c3)C(=O)[C@]2(Cc2ccc(OC(F)(F)F)cc2)C1` [Example 312, (5R, 7R)-5-[4-(Trifluoromethoxy)benzyl]-3-(3,5-dichlorophenyl)-7-carbamoyl-1,3-diazabicyclo[3.3.0]octane-2,4-dione] registered a melting point of 122.7 °C. `CN(C)C(=O)C1CN2C(=O)N(c3cc(Cl)cc(Cl)c3)C(=O)C2(Cc2ccc(OC(F)(F)F)cc2)C1` (stereo not drawn) [Example 313] had a melting point of 106.1 °C. On to `CNC(=O)C1CN2C(=O)N(c3cc(Cl)cc(Cl)c3)C(=O)C2(Cc2ccc(OC(F)(F)F)cc2)C1` (stereo not drawn) [Example 314], for which the melting point was determined as 212.6 °C.

Consider `NC(=O)C1CN2C(=O)N(c3cc(Cl)cc(Cl)c3)C(=O)C2(Cc2ccc(OC(F)(F)F)cc2)C1` (stereo not drawn) [Example 317], for which the melting point is 140.3 °C.

As to `CNC(=O)C1CN2C(=O)N(c3cc(Cl)cc(Cl)c3)C(=O)C2(Cc2ccc(OC(F)(F)F)cc2)C1` (stereo not drawn) [Example 319], the melting point turned out to be 122.7 °C.

The values are drawn from patent publication US7342012B2, “Inhibitors of αLβ2 mediated cell adhesion” (Mitsubishi Tanabe Pharma Corporation, priority 1999, dated 2008).
